Measurements taken from US10913727B2, “Modulators of the integrated stress pathway” (Calico Life Sciences LLC, priority 2016, dated 2021).

These compounds were tested on HEK293T cells carrying the ATF4 luciferase reporter (assay: ATF4-Luc assay, in vitro model of Vanishing Cell White Matter Disease (VWMD)). Details: Homo sapiens, HEK-293T, 1 μg/mL tunicamycin, 7 hours, One Glo luminescence.
Type: cell-based
How it was run: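 Stable HEK293T line with human ATF4 5′-UTR–firefly luciferase reporter treated with 1 μg/mL tunicamycin plus 200 nM compound for 7 h. Luminescence read; EC50 derived.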
`Cn1nc(C(F)F)cc1C(=O)NC12CCC(NC(=O)COc3ccc(Cl)c(F)c3)(CC1)C(O)C2` (stereo not drawn) [Compound 437, N-{4-[2-(4-chloro-3-fluorophenoxy)acetamido]-3-hydroxybicyclo[2.2.2]octan-1-yl}-3-(difluoromethyl)-1-methyl-1H-pyrazole-5-carboxamide] showed an EC50 of under 0.05 µM.
For `Cn1ccnc1C(=O)NC12CC(NC(=O)COc3ccc(Cl)c(F)c3)(C1)C2` [Compound 904, N-{3-[2-(4-chloro-3-fluorophenoxy)acetamido]bicyclo[1.1.1]pentan-1-yl}-1-methyl-1H-imidazole-2-carboxamide], the EC50 was over 2 µM.
For `Cc1cc2c(NC34CC(NC(=O)COc5cccc(OC(F)(F)F)c5)(C3)C4)nccn2n1` [Compound 424, N-{3-[(2-methylpyrazolo[1,5-a]pyrazin-4-yl)amino]bicyclo[1.1.1]pentan-1-yl}-2-[3-(trifluoromethoxy)phenoxy]acetamide], the EC50 was 1 to 2 µM.
For `Cc1cc(C(=O)NC23CCC(NC(=O)COc4ccc(Cl)c(F)c4)(CC2)[C@@H](O)C3)n(C)n1` (single isomer, unassigned) [Compound 485], the EC50 was under 0.05 µM.
With `O=C(COc1ccc(Cl)c(F)c1)NC12CC(NC(=O)c3noc4ccccc34)(C1)C2` [Compound 346, N-{3-[2-(4-chloro-3-fluorophenoxy)acetamido]bicyclo[1.1.1]pentan-1-yl}-1,2-benzoxazole-3-carboxamide] the EC50 was 0.25 to 1 µM.
`CN(C)Cc1ccccc1C(=O)NC12CC(NC(=O)COc3ccc(Cl)c(F)c3)(C1)C2` [Compound 542, N-{3-[2-(4-chloro-3-fluorophenoxy)acetamido]bicyclo[1.1.1]pentan-1-yl}-2-[(dimethylamino)methyl]benzamide] showed an EC50 of over 2 µM.
Work on `Cc1ccnc(C(=O)NC23CC(NC(=O)COc4ccc(Cl)c(Cl)c4)(C2)C3)c1` [Compound 526, N-{3-[2-(3,4-dichlorophenoxy)acetamido]bicyclo[1.1.1]pentan-1-yl}-4-methylpyridine-2-carboxamide] yielded an EC50 of 0.25 to 1 µM.
`O=C(COc1ccc(Cl)c(F)c1)NC12CCC(NC(=O)c3ccn[nH]3)(CC1)C(O)C2` (stereo not drawn) [Compound 224, N-{4-[2-(4-chloro-3-fluorophenoxy)acetamido]-2-hydroxybicyclo[2.2.2]octan-1-yl}-1H-pyrazole-5-carboxamide] gave an EC50 of 0.25 to 1 µM.
Compound `O=C(COc1ccc(Cl)c(F)c1)NC12CC(NC(=O)c3cccc(F)c3F)(C1)C2` [Compound 509, N-{3-[2-(4-chloro-3-fluorophenoxy)acetamido]bicyclo[1.1.1]pentan-1-yl}-2,3-difluorobenzamide] has an EC50 of 0.25 to 1 µM.
`O=C(COc1ccc(Cl)c(F)c1)NC12CC(NC(=O)c3cc(C(=O)NC4CC(F)(F)C4)ccn3)(C1)C2` [Compound 263, N^2-{3-[2-(4-chloro-3-fluorophenoxy)acetamido]bicyclo[1.1.1]pentan-1-yl}-N^4-(3,3-difluorocyclobutyl)pyridine-2,4-dicarboxamide] was tested, and the EC50 was 0.25 to 1 µM.
With `CC(C)c1nc(C(=O)NC23CC(NC(=O)COc4ccc(Cl)c(F)c4)(C2)C3)co1` [Compound 245, N-{3-[2-(4-chloro-3-fluorophenoxy)acetamido]bicyclo[1.1.1]pentan-1-yl}-2-(propan-2-yl)-1,3-oxazole-4-carboxamide] the EC50 was 0.25 to 1 µM.
In the case of `CN1CCc2c(cccc2NC23CC(NC(=O)COc4ccc(Cl)c(F)c4)(C2)C3)C1` [Compound 491, 2-(4-chloro-3-fluorophenoxy)-N-{3-[(2-methyl-1,2,3,4-tetrahydroisoquinolin-5-yl)amino]bicyclo[1.1.1]pentan-1-yl}acetamide], the EC50 is reported as over 2 µM.
`CCc1cc(C(=O)NC23CC(NC(=O)COc4ccc(Cl)c(F)c4)(C2)C3)n(C)n1` [Compound 254, N-{3-[2-(4-chloro-3-fluorophenoxy)acetamido]bicyclo[1.1.1]pentan-1-yl}-3-ethyl-1-methyl-1H-pyrazole-5-carboxamide] gave an EC50 of under 0.05 µM.
With `Cc1noc(C)c1C(=O)NC12CC(NC(=O)COc3ccc(Cl)c(F)c3)(C1)C2` [Compound 312, N-{3-[2-(4-chloro-3-fluorophenoxy)acetamido]bicyclo[1.1.1]pentan-1-yl}-3,5-dimethyl-1,2-oxazole-4-carboxamide] the EC50 was over 2 µM.
For `CC(=O)N1CCC(c2ncc(C(=O)NC34CC(NC(=O)COc5ccc(Cl)c(F)c5)(C3)C4)o2)CC1` [Compound 148, 2-(1-acetylpiperidin-4-yl)-N-{3-[2-(4-chloro-3-fluorophenoxy)acetamido]bicyclo[1.1.1]pentan-1-yl}-1,3-oxazole-5-carboxamide], the EC50 was over 2 µM.
With `O=C(COc1ccc(Cl)c(F)c1)NC12CCC(NC(=O)c3cc(C4CC4)no3)(CC1)CC2O` (stereo not drawn) [Compound 327, N-{4-[2-(4-chloro-3-fluorophenoxy)acetamido]-3-hydroxybicyclo[2.2.2]octan-1-yl}-3-cyclopropyl-1,2-oxazole-5-carboxamide] the EC50 was 0.05 to 0.25 µM.
`Cc1cnn2ccc(NC34CC(NC(=O)COc5ccc(Cl)c(F)c5)(C3)C4)nc12` [Compound 610, 2-(4-chloro-3-fluorophenoxy)-N-{3-[(3-methylpyrazolo[1,5-a]pyrimidin-5-yl)amino]bicyclo[1.1.1]pentan-1-yl}acetamide] gave an EC50 of 1 to 2 µM.
Compound `Cc1cc(C)nc(C(=O)NC23CC(NC(=O)COc4ccc(Cl)c(F)c4)(C2)C3)c1` [Compound 889, N-{3-[2-(4-chloro-3-fluorophenoxy)acetamido]bicyclo[1.1.1]pentan-1-yl}-4,6-dimethylpyridine-2-carboxamide] has an EC50 of 1 to 2 µM.
`O=C(COc1ccc(Cl)c(F)c1)NC12CCC(NC(=O)c3cnc(C(F)(F)F)cn3)(CC1)C[C@@H]2O` [Compound 652, N-{(3S)-4-[2-(4-chloro-3-fluorophenoxy)acetamido]-3-hydroxybicyclo[2.2.2]octan-1-yl}-5-(trifluoromethyl)pyrazine-2-carboxamide] showed an EC50 of under 0.05 µM.
`Cc1cc(C(=O)NC23CC(NC(=O)COc4ccc(Cl)c(F)c4)(C2)C3)nn1C` [Compound 848, N-{3-[2-(4-chloro-3-fluorophenoxy)acetamido]bicyclo[1.1.1]pentan-1-yl}-1,5-dimethyl-1H-pyrazole-3-carboxamide] showed an EC50 of under 0.05 µM.
With `O=C(COc1ccc(Cl)c(F)c1)NC12CC(NC(=O)c3cccnc3)(C1)C2` [Compound 130, N-{3-[2-(4-chloro-3-fluorophenoxy)acetamido]bicyclo[1.1.1]pentan-1-yl}pyridine-3-carboxamide] the EC50 was 0.05 to 0.25 µM.
Compound `CCc1noc(C(=O)NC23CCC(NC(=O)COc4ccc(Cl)c(F)c4)(CC2)C(O)C3)n1` (stereo not drawn) [Compound 567, N-{4-[2-(4-chloro-3-fluorophenoxy)acetamido]-3-hydroxybicyclo[2.2.2]octan-1-yl}-3-ethyl-1,2,4-oxadiazole-5-carboxamide] has an EC50 of 0.05 to 0.25 µM.
`O=C(COc1ccc(Cl)c(F)c1)NC12CC(NC(=O)c3ccc(CCC4CC4)cn3)(C1)C2` [Compound 289, N-{3-[2-(4-chloro-3-fluorophenoxy)acetamido]bicyclo[1.1.1]pentan-1-yl}-5-(2-cyclopropylethyl)pyridine-2-carboxamide] gave an EC50 of under 0.05 µM.
In the case of `O=C(COc1ccc(Cl)c(F)c1)NC12CC(NC(=O)c3cnc4ccnn4c3)(C1)C2` [Compound 690, N-{3-[2-(4-chloro-3-fluorophenoxy)acetamido]bicyclo[1.1.1]pentan-1-yl}pyrazolo[1,5-a]pyrimidine-6-carboxamide], the EC50 is reported as 0.25 to 1 µM.
Compound `Cc1nc(C(=O)NC23CCC(NC(=O)COc4ccc(Cl)c(F)c4)(CC2)[C@@H](O)C3)n[nH]1` [Compound 673, N-{(3S)-4-[2-(4-chloro-3-fluorophenoxy)acetamido]-3-hydroxybicyclo[2.2.2]octan-1-yl}-5-methyl-1H-1,2,4-triazole-3-carboxamide] has an EC50 of 0.05 to 0.25 µM.
In the case of `O=C(COc1ccc(Cl)c(Cl)c1)NC12CC(NC(=O)c3cnc(C(F)F)cn3)(C1)C2` [Compound 201, N-{3-[2-(3,4-dichlorophenoxy)acetamido]bicyclo[1.1.1]pentan-1-yl}-5-(difluoromethyl)pyrazine-2-carboxamide], the EC50 is reported as under 0.05 µM.
`O=C(COc1ccc(Cl)c(F)c1)NC12CCC(NC(=O)c3cc(C(F)F)no3)(CC1)CC2O` (stereo not drawn) [Compound 632, N-{4-[2-(4-chloro-3-fluorophenoxy)acetamido]-3-hydroxybicyclo[2.2.2]octan-1-yl}-3-(difluoromethyl)-1,2-oxazole-5-carboxamide] showed an EC50 of under 0.05 µM.
`O=C(COc1ccc(Cl)c(F)c1)NC12CC(NC(=O)c3ccoc3)(C1)C2` [Compound 305, N-{3-[2-(4-chloro-3-fluorophenoxy)acetamido]bicyclo[1.1.1]pentan-1-yl}furan-3-carboxamide] showed an EC50 of 0.25 to 1 µM.
Compound `CCc1ncc(C(=O)NC23CC(NC(=O)COc4ccc(Cl)c(F)c4)(C2)C3)s1` [Compound 292, N-{3-[2-(4-chloro-3-fluorophenoxy)acetamido]bicyclo[1.1.1]pentan-1-yl}-2-ethyl-1,3-thiazole-5-carboxamide] has an EC50 of 0.05 to 0.25 µM.
Work on `O=C(COc1ccc(Cl)c(F)c1)NC12CC(NC(=O)c3ccc(C4CC4)cn3)(C1)C2` [Compound 143, N-{3-[2-(4-chloro-3-fluorophenoxy)acetamido]bicyclo[1.1.1]pentan-1-yl}-5-cyclopropylpyridine-2-carboxamide] yielded an EC50 of 0.05 to 0.25 µM.
`CC(C)(C)c1cnc(C(=O)NC23CCC(NC(=O)COc4ccc(Cl)c(F)c4)(CC2)[C@@H](O)C3)cn1` [Compound 705, 5-tert-butyl-N-{(3S)-4-[2-(4-chloro-3-fluorophenoxy)acetamido]-3-hydroxybicyclo[2.2.2]octan-1-yl}pyrazine-2-carboxamide] showed an EC50 of over 2 µM.
`O=C(COc1ccc(Cl)c(Cl)c1)NC12CC(NC(=O)c3ccccn3)(C1)C2` [Compound 156, N-{3-[2-(3,4-dichlorophenoxy)acetamido]bicyclo[1.1.1]pentan-1-yl}pyridine-2-carboxamide] showed an EC50 of 0.05 to 0.25 µM.
`CC(=O)Nc1c(C)nn(C)c1C(=O)NC12CCC(NC(=O)COc3ccc(Cl)c(F)c3)(CC1)C(O)C2` (stereo not drawn) [Compound 505, 4-acetamido-N-{4-[2-(4-chloro-3-fluorophenoxy)acetamido]-3-hydroxybicyclo[2.2.2]octan-1-yl}-1,3-dimethyl-1H-pyrazole-5-carboxamide] showed an EC50 of over 2 µM.
